Patent publication US8362000B2, “Azetidinyl diamides as monoacylglycerol lipase inhibitors” (Janssen Pharmaceutica NV, priority 2009, dated 2013)
Like-named read-outs stand apart in the source and are kept apart here.

Molecular target: T1, mutant MGL (Homo sapiens, UniProt Q99685, L169S/L176S)
T1 sequence (Q99685 1-303 L169S/L176S): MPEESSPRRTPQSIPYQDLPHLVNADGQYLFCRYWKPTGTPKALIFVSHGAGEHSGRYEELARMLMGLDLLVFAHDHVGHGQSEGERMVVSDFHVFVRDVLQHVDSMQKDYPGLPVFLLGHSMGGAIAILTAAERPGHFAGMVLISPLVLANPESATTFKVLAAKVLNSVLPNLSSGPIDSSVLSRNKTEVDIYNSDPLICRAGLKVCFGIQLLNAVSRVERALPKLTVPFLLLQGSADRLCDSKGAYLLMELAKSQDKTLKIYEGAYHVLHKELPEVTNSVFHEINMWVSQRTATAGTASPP
Assay: MGL ThermoFluor assay - mutant
Assay type: binding
Conditions: read-out: MGL mutant ThermoFluor Kd

[1] = ThermoFluor concentration-response
[2] = ThermoFluor thermal stability binding assay

## O=C(c1ccccc1)N1CCN(C2CN(C(=O)c3ccccc3NCc3ccccc3)C2)CC1 [Cpd 52, N-Benzyl-2-({3-[4-(phenylcarbonyl)piperazin-1-yl]azetidin-1-yl}carbonyl)aniline]
[1]
  Kd: 3330 nM

## O=C(c1ccccc1)N1CCN(C2CN(C(=O)c3ccc(N4CCCCC4)cc3)C2)CC1 [Cpd 53, 1-(Phenylcarbonyl)-4-{1-[(4-piperidin-1-ylphenyl)carbonyl]azetidin-3-yl}piperazine]
[1]
  Kd: 100 nM

## O=C(c1ccccc1)N1CCN(C2CN(C(=O)c3ccc4[nH]c5c(c4c3)CCCC5)C2)CC1 [Cpd 55, 6-({3-[4-(Phenylcarbonyl)piperazin-1-yl]azetidin-1-yl}carbonyl)-2,3,4,9-tetrahydro-1H-carbazole]
[1]
  Kd: 25000 nM

## N#Cc1cccc(-c2ccc(C(=O)N3CC(N4CCN(C(=O)c5ccccc5)CC4)C3)cc2)c1 [Cpd 76, 4′-({3-[4-(Phenylcarbonyl)piperazin-1-yl]azetidin-1-yl}carbonyl)biphenyl-3-carbonitrile]
[1]
  Kd: 333 nM

## O=C(c1ccccc1)N1CCN(C2CN(C(=O)c3ccc(-c4ccc(Cl)cc4)cc3)C2)CC1 [Cpd 78, 1-{1-[(4′-Chlorobiphenyl-4-yl)carbonyl]azetidin-3-yl}-4-(phenylcarbonyl)piperazine]
[1]
  Kd: 80 nM

## O=C(c1ccccc1)N1CCN(C2CN(C(=O)c3ccc(-c4cc(Cl)cc(Cl)c4)cc3)C2)CC1 [Cpd 79, 1-{1-[(3′,5′-Dichlorobiphenyl-4-yl)carbonyl]azetidin-3-yl}-4-(phenylcarbonyl)piperazine]
[1]
  Kd: 26.6 nM

## O=C(c1ccccc1)N1CCN(C2CN(C(=O)c3cncc(-c4ccccc4)c3)C2)CC1 [Cpd 80, 1-(Phenylcarbonyl)-4-{1-[(5-phenylpyridin-3-yl)carbonyl]azetidin-3-yl}piperazine]
[1]
  Kd: 49500 nM

## O=C(c1ccccc1)N1CCN(C2CN(C(=O)c3ccc(-c4ccccc4)c(F)c3)C2)CC1 [Cpd 81, 1-{1-[(2-Fluorobiphenyl-4-yl)carbonyl]azetidin-3-yl}-4-(phenylcarbonyl)piperazine]
[1]
  Kd: 66.7 nM

## N#Cc1ccc(-c2ccc(C(=O)N3CC(N4CCN(C(=O)c5ccccc5)CC4)C3)cc2)cc1 [Cpd 82, 4′-({3-[4-(Phenylcarbonyl)piperazin-1-yl]azetidin-1-yl}carbonyl)biphenyl-4-carbonitrile]
[1]
  Kd: 571 nM

## O=C(/C=C/c1ccccc1Cl)N1CC(N2CCN(C(=O)c3ccccc3)CC2)C1 [Cpd 103, 1-{1-[(2E)-3-(2-Chlorophenyl)prop-2-enoyl]azetidin-3-yl}-4-(phenylcarbonyl)piperazine]
[1]
  Kd: 6250 nM

## O=C(/C=C/c1ccccc1Br)N1CC(N2CCN(C(=O)c3ccccc3)CC2)C1 [Cpd 104, 1-{1-[(2E)-3-(2-Bromophenyl)prop-2-enoyl]azetidin-3-yl}-4-(phenylcarbonyl)piperazine]
[1]
  Kd: 5000 nM

## O=C(/C=C/c1ccc2ccccc2c1)N1CC(N2CCN(C(=O)c3ccccc3)CC2)C1 [Cpd 105, 1-{1-[(2E)-3-Naphthalen-2-ylprop-2-enoyl]azetidin-3-yl}-4-(phenylcarbonyl)piperazine]
[1]
  Kd: 5000 nM

## O=C(c1ccccc1)N1CCN(C2CN(C(=O)C3CCC(c4ccccc4)CC3)C2)CC1 (stereo not shown) [Cpd 106, 1-(Phenylcarbonyl)-4-{1-[(4-phenylcyclohexyl)carbonyl]azetidin-3-yl}piperazine]
[1]
  Kd: 154 nM

## Cc1c(-c2ccccc2)oc2c(C(=O)N3CC(N4CCN(C(=O)c5ccccc5)CC4)C3)cccc2c1=O [Cpd 107, 3-Methyl-2-phenyl-8-({3-[4-(phenylcarbonyl)piperazin-1-yl]azetidin-1-yl}carbonyl)-4H-chromen-4-one]
[1]
  Kd: 556 nM

## O=C(c1ccccc1)C1CCC(C(=O)N2CC(N3CCN(C(=O)c4ccccc4)CC3)C2)CC1 (stereo not shown) [Cpd 108, Phenyl[4-({3-[4-(phenylcarbonyl)piperazin-1-yl]azetidin-1-yl}carbonyl)cyclohexyl]methanone]
[1]
  Kd: 1250 nM

## CC(C)(C)OC(=O)N1CCC(c2ccc(C(=O)N3CC(N4CCN(C(=O)c5ccccc5)CC4)C3)cc2)CC1 [Cpd 109, tert-Butyl 4-[4-({3-[4-(phenylcarbonyl)piperazin-1-yl]azetidin-1-yl}carbonyl)phenyl]piperidine-1-carboxylate]
[1]
  Kd: 33.3 nM

## O=C(c1ccccc1)N1CCN(C2CN(C(=O)c3cccnc3Oc3ccccc3)C2)CC1 [Cpd 110, 1-{1-[(2-Phenoxypyridin-3-yl)carbonyl]azetidin-3-yl}-4-(phenylcarbonyl)piperazine]
[1]
  Kd: 5000 nM

## CC(C)(C)OC(=O)N1CCC(c2ccccc2C(=O)N2CC(N3CCN(C(=O)c4ccccc4)CC3)C2)C1 (stereo not shown) [Cpd 111, tert-Butyl 3-[2-({3-[4-(phenylcarbonyl)piperazin-1-yl]azetidin-1-yl}carbonyl)phenyl]pyrrolidine-1-carboxylate]
[1]
  Kd: 10000 nM

## CC1CN(C2CN(C(=O)c3cccc(Oc4ccccc4)c3)C2)CCN1C(=O)c1nccs1 (stereo not shown) [Cpd 113]
[1]
  Kd: 1110 nM

## O=C(c1ccc(-c2ccccc2)cc1)N1CC(N2CCN(C(=O)c3nccs3)CC2c2ccccc2)C1 (stereo not shown) [Cpd 114]
[1]
  Kd: 3.33 nM

## CC1CN(C2CN(C(=O)c3cccc(-c4ccccc4)c3)C2)CCN1C(=O)c1nccs1 (stereo not shown) [Cpd 116]
[1]
  Kd: 2000 nM

## O=C(c1ccccc1)N1CCN(C2CN(C(=O)c3ccc4c(ccn4S(=O)(=O)c4ccccc4)c3)C2)CC1 [Cpd 130]
[2]
  Kd: 250 nM

## O=C(c1ccccc1)N1CCN(C2CN(C(=O)c3ccc4nc(-c5cccc(C(F)(F)F)c5)oc4c3)C2)CC1 [Cpd 131, 6-({3-[4-(Phenylcarbonyl)piperazin-1-yl]azetidin-1-yl}carbonyl)-2-[3-(trifluoromethyl)phenyl]-1,3-benzoxazole]
[2]
  Kd: 94.1 nM

## O=C(c1ccccc1)N1CCN(C2CN(C(=O)c3ccc4oc(-c5ccccc5)nc4c3)C2)CC1 [Cpd 132]
[2]
  Kd: 250 nM

## O=C(c1cccc(-c2cccc(Br)n2)c1)N1CC(N2CCN(C(=O)c3nccs3)CC2)C1 [Cpd 151, 1-(1-{[3-(6-Bromopyridin-2-yl)phenyl]carbonyl}azetidin-3-yl)-4-(1,3-thiazol-2-ylcarbonyl)piperazine]
[1]
  Kd: 25 nM

## O=C(c1ccc(-c2cccc(Cl)c2)cc1)N1CC(N2CCN(C(=O)c3nccs3)CC2)C1 [Cpd 162, 1-{1-[(3′-Chlorobiphenyl-4-yl)carbonyl]azetidin-3-yl}-4-(1,3-thiazol-2-ylcarbonyl)piperazine]
[1]
  Kd: 0.67 nM

## O=C(c1cncc(-c2ccccc2)c1)N1CC(N2CCN(C(=O)c3cscn3)CC2)C1 [Cpd 169]
[1]
  Kd: 30300 nM

## N#Cc1ccc(-c2ccc(C(=O)N3CC(N4CCN(C(=O)c5cscn5)CC4)C3)cc2)cc1 [Cpd 171]
[1]
  Kd: 708 nM

## N#CC=Cc1cccc(-c2ccc(C(=O)N3CC(N4CCN(C(=O)c5nccs5)CC4)C3)cc2)c1 [Cpd 223, 3-[4′-({3-[4-(1,3-Thiazol-2-ylcarbonyl)piperazin-1-yl]azetidin-1-yl}carbonyl)biphenyl-3-yl]prop-2-enenitrile]
[2]
  Kd: 6.7 nM

## CS(=O)(=O)c1cccc(-c2ccc(C(=O)N3CC(N4CCN(C(=O)c5ccccc5)CC4)C3)cc2)c1 [Cpd 231, 1-(1-{[3′-(Methylsulfonyl)biphenyl-4-yl]carbonyl}azetidin-3-yl)-4-(phenylcarbonyl)piperazine]
[2]
  Kd: 143 nM

## CC(=O)Nc1cccc(-c2ccc(C(=O)N3CC(N4CCN(C(=O)c5ccccc5)CC4)C3)cc2)c1 [Cpd 233, N-[4′-({3-[4-(Phenylcarbonyl)piperazin-1-yl]azetidin-1-yl}carbonyl)biphenyl-3-yl]acetamide]
[2]
  Kd: 1320 nM
